Measured values reported in ChEMBL document CHEMBL1201862, “PubChem BioAssay data set” (2004).
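Each compound was tested at five concentrations against cells in 96-well plates for 48 hours. GI50 is the concentration that inhibits growth by half.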 Active and inactive are the calls of the source. Rule as the data show it: active = GI50 up to about 1.1 µM and inactive = higher.

Assays:
Assay in all cases: DTP human tumour cell line panel, 48 h
Hs-578T = tested on: Hs-578T
IGROV-1 = tested on: IGROV-1
SK-MEL-28 = tested on: SK-MEL-28
SK-MEL-5 = tested on: SK-MEL-5
SK-OV-3 = tested on: SK-OV-3
SNB-75 = tested on: SNB-75
UACC-62 = tested on: UACC-62
786-0 = tested on: 786-0
A498 = tested on: A498
A549 = tested on: A549
ACHN = tested on: ACHN
CAKI-1 = tested on: CAKI-1
CCRF-CEM = tested on: CCRF-CEM
COLO 205 = tested on: COLO 205
DU-145 = tested on: DU-145
HCC 2998 = tested on: HCC 2998
HCT-116 = tested on: HCT-116
HL-60 = tested on: HL-60
HOP-62 = tested on: HOP-62
HOP-92 = tested on: HOP-92
HT-29 = tested on: HT-29
K562 = tested on: K562
KM12 = tested on: KM12
LOX IMVI = tested on: LOX IMVI
M14 = tested on: M14
MCF7 = tested on: MCF7
MDA-MB-231 = tested on: MDA-MB-231
MDA-MB-435 = tested on: MDA-MB-435
MDA-N = tested on: MDA-N
MOLT-4 = tested on: MOLT-4
NCI-H226 = tested on: NCI-H226
NCI-H23 = tested on: NCI-H23
NCI-H460 = tested on: NCI-H460
NCI/ADR-RES = tested on: NCI/ADR-RES
OVCAR-3 = tested on: OVCAR-3
OVCAR-4 = tested on: OVCAR-4
OVCAR-5 = tested on: OVCAR-5
OVCAR-8 = tested on: OVCAR-8
PC-3 = tested on: PC-3
RPMI-8226 = tested on: RPMI-8226
RXF 393 = tested on: RXF 393
SF-268 = tested on: SF-268
SF-295 = tested on: SF-295
SF-539 = tested on: SF-539
SK-MEL-2 = tested on: SK-MEL-2
SN12C = tested on: SN12C
SNB-19 = tested on: SNB-19
SR = tested on: SR
SW-620 = tested on: SW-620
T47D = tested on: T47D
TK-10 = tested on: TK-10
U-251 = tested on: U-251
UACC-257 = tested on: UACC-257
UO-31 = tested on: UO-31

Measured: GI50

CN(C)CC1CCCCCCCCCCC1=O (stereo not given)
inactive: Hs-578T 66.4 µM | IGROV-1 > 100 µM | SK-MEL-28 > 100 µM | SK-MEL-5 > 100 µM | SK-OV-3 86.7 µM | SNB-75 > 100 µM | UACC-62 > 100 µM

NC(=O)C(=CNC(=S)Nc1cccc(C(F)(F)F)c1)C(N)=O
inactive: 786-0 > 100 µM | A498 > 100 µM | A549 > 100 µM | ACHN > 100 µM | CAKI-1 28.4 µM | CCRF-CEM > 100 µM | COLO 205 > 100 µM | DU-145 > 100 µM | HCC 2998 > 100 µM | HCT-116 > 100 µM | HL-60 > 100 µM | HOP-62 > 100 µM | HOP-92 > 100 µM | HT-29 > 100 µM | Hs-578T > 100 µM | K562 > 100 µM | KM12 > 100 µM | LOX IMVI > 100 µM | M14 > 100 µM | MCF7 > 100 µM | MDA-MB-231 > 100 µM | MDA-MB-435 > 100 µM | MDA-N > 100 µM | MOLT-4 > 100 µM | NCI-H226 > 100 µM | NCI-H23 > 100 µM | NCI-H460 > 100 µM | NCI/ADR-RES > 100 µM | OVCAR-3 > 100 µM | OVCAR-4 > 100 µM | OVCAR-5 > 100 µM | OVCAR-8 > 100 µM | PC-3 > 100 µM | RPMI-8226 > 100 µM | RXF 393 > 100 µM | SF-268 > 100 µM | SF-295 > 100 µM | SF-539 > 100 µM | SK-MEL-28 > 100 µM | SK-MEL-2 > 100 µM | SK-MEL-5 > 100 µM | SK-OV-3 > 100 µM | SN12C > 100 µM | SNB-19 > 100 µM | SNB-75 51.9 µM | SR > 100 µM | SW-620 > 100 µM | T47D > 100 µM | TK-10 > 100 µM | U-251 > 100 µM | UACC-257 > 100 µM | UACC-62 > 100 µM | UO-31 > 100 µM
